According to publication PMC11601558, “SLC6A19 inhibition facilitates urinary neutral amino acid excretion and lowers plasma phenylalanine” (JCI Insight, 2024):
Where “and” joins values, the source holds several entries; their conditions need not be identical. Identical values can stand only once. Like-named read-outs stand apart in the source and are kept apart here.

Legend:
Pah^enu2 mice = test: Plasma Phe in Pah^enu2 mice after JN-170; assay type: in vivo, mouse
Procedure: (§1) Male homozygous BTBR-Pah<enu2>/J (Pah^enu2) aged 10–13 weeks were purchased from Jackson Laboratory (no. 002232). Immediately before dosing, each animal’s bladder was manually emptied and a plasma sample was drawn. Animals were dosed by oral gavage with vehicle (10% DMSO, 20% 2-hydroxypropyl-β-cyclodextrin [Sigma-Aldrich]) followed by a 1-week washout prior to dosing with JN-170 at doses ranging from 50 to 250 mg/kg. Following dosing with vehicle or JN-170, animals were individually placed in metabolic cages to collect urine samples. After collection of each urine sample, cages were rinsed with ultra-pure water to recover residual analytes. Blood samples were collected predose as well as 1, 3, 8, 12, and 24 hours after dosing with vehicle or JN-170 into tubes with EDTA as a […], and plasma was separated by centrifuging samples at 2,200g for 5 minutes at 4°C. Throughout the study, mice had access to food and water ad libitum. Plasma and urine samples were stored at –80°C until processing.Ten-week-old male WT C57Bl/6J animals (Si Bei Fu Laboratory Animal Technology Co. Ltd.) were dosed either with vehicle or 50–250 mg/kg JN-170 by oral gavage and blood and urine samples were collected as described. All animals had unrestricted access to food and water during the study; C57Bl/6J were kept on rodent maintenance diet from Beijing Keao Xieli, Pah^enu2 mice were kept on Teklad diet no. T.2018.
(§2) Plasma sample analyses were carried out by liquid chromatography tandem mass spectrometry (LC-MS/MS). Plasma samples were mixed 1:1 with carbamazepine or ^13C6-Phe as internal standards for JN-170 and Phe, respectively. Plasma proteins were precipitated by adding 4 volumes of acetonitrile (ACN) and 0.1% formic acid (FA) followed by centrifugation for 5 minutes at 2,100g. Supernatants were diluted 1:1 in ACN and 0.1% FA. For JN-170, a Waters HSS T3 reversed phase column was used for separation using a binary gradient of 0.1% FA in water (mobile phase A) to 0.1% in ACN (mobile phase B). At a flow rate of 0.8 mL/min, the mobile phase gradient increased from an initial 25% phase B to 95% phase B over 30 seconds. After, 1.5 minutes, the gradient was returned to 25% mobile phase B. For detection of Phe, an Acquity UPLC ethylene bridged hybrid (BEH) amide column was used, with a binary gradient of 10 mM ammonium acetate in 95:5:1 H2O:ACN:FA (mobile phase A) to 10 mM ammonium acetate in 95:5:1 ACN:H2O:FA (mobile phase B). At a flow rate of 0.5 mL/min, the mobile phase gradient changed from an initial 100% phase B to 50% phase B over 2.1 minutes. It was returned to 100% phase B after 4 minutes. Analytes were detected using a Sciex API-5500 in multiple reaction monitoring mode using an electrospray ionization source in the positive ion mode with the following ion transitions: m/z 435.2/84.1 (JN-170), 237.1/194.1 (carbamazepine), 166.1/120.1 (Phe), 172.2/126.2 for (^13C6-Phe). Analyte concentrations were calculated with a 1/×^2 linear regression over a concentration range of 1 or 2 to 5,000 ng/mL for JN-170 and 0.05–100 ng/mL for Phe.
IC50 values for transport inhibition in cells overexpressing SLC6A19 and TMEM27 were calculated using a 4-parameter logistic regression in Collaborative Drug Discovery (CDD). Reported IC50 values are geometric means of 4–6 independent experiments. For postmortem intestinal transport assays, single outliers of quadruplicate replicates were excluded from the calculation if a signal value’s distance to the mean exceeded 35% of the signal average. The IC50 values of individual experiments were calculated with a 3- or 4-parameter logistic regression using GraphPad Prism 9. The reported IC50 value represents the geometric mean of n = 5 experiments from 3 individual donors. Statistical comparison of urinary Phe excretion in Pah^enu2 mice treated with vehicle or JN-170 was conducted using 1-way analysis of variance (ANOVA) with Tukey’s post hoc comparison. […]

[1] = JN-170 plasma pharmacokinetics in Pah^enu2 mice, single oral dose; assay type: in vivo, mouse; design: JN-170 plasma level (Fig 3a) / JN-170 plasma concentration: unit not given here; conditions: for JN-170 plasma level (Fig 3a) / concentration at 8 h / concentration at 1 h / concentration at 3 h: individual Pah^enu2 mice; for JN-170 plasma concentration: Fig S3a, Pahenu2 mice, individual animals; for concentration at 8 h / concentration at 1 h / concentration at 3 h: male, BTBR-Pah<enu2>/J (Pah^enu2), mouse, plasma, oral, read-out: JN-170 plasma level (Fig 3a)
Procedure: as §1, §2

N#Cc1ccc(-c2noc([C@]3(C(F)(F)F)CCN(C(=O)NCCC4(N)CC4)C3)n2)cc1 [JN-170]
plasma Phe, mean ± SD (Pah^enu2 mice; 50 mg/kg, 3 hours): 984 ± 135 µM
plasma Phe lower than predose baseline (Pah^enu2 mice; 50 mg/kg, 3 hours after dosing): 45%
plasma Phe decrease from baseline (Pah^enu2 mice; 50 mg/kg, 12 hours): 34%
plasma Phe, mean ± SD (Pah^enu2 mice; 50 mg/kg, 12 hours): 1,119 ± 124 μM
plasma Phe, mean ± SD (Pah^enu2 mice; 250 mg/kg, 3 hours): 764 ± 43 µM
reduction in plasma Phe vs predose (Pah^enu2 mice; 250 mg/kg, 3 hours): 54%
plasma Phe, mean ± SD (Pah^enu2 mice; 250 mg/kg, 12 hours): 648 ± 106 µM
reduction in plasma Phe vs predose (Pah^enu2 mice; 250 mg/kg, 12 hours): 61%
lowering of plasma Phe (Pah^enu2 mice; plasma exposures with target coverage above the IC75): > 40%
coverage above the in vitro IC75 ([1]; 50 mg/kg): approximately 3 hours
JN-170 plasma level (Fig 3a) ([1]; 50 mg/kg oral, 24 h): 8.45 and 26.4 and 9.59 and 19.9
JN-170 plasma level (Fig 3a) ([1]; 250 mg/kg oral, 1 h): 16600 (2×) and 17000 and 16300 and 17600
JN-170 plasma level (Fig 3a) ([1]; 250 mg/kg oral, 24 h): 125 and 63 and 72.6
JN-170 plasma concentration ([1]; time 1 h): 10400 and 12200 and 13800 and 8750 and 11500 and 12500
JN-170 plasma concentration ([1]; time 3 h): 8500 and 9610 and 10900 and 8710 and 9900 and 11900
JN-170 plasma concentration ([1]; time 8 h): 11000 and 6710 and 8280 and 8610 and 8480 and 9150
JN-170 plasma concentration ([1]; time 12 h): 7430 and 5630 and 5750 and 12700 and 9060 and 6600
JN-170 plasma concentration ([1]; time 24 h): 33.1 and 16 and 26.9 and 82.7 and 103 and 19.9
concentration at 8 h ([1]; 50 mg/kg, 50 mg/kg oral): 456 ng/mL
concentration at 1 h ([1]; 100 mg/kg, 100 mg/kg oral, 1 h): 5780 ng/mL
concentration at 3 h ([1]; 100 mg/kg, 100 mg/kg oral): 4240 ng/mL
concentration at 8 h ([1]; 100 mg/kg, 100 mg/kg oral): 2280 ng/mL
concentration at 1 h ([1]; 200 mg/kg, 200 mg/kg oral, 1 h): 8750 ng/mL
concentration at 3 h ([1]; 200 mg/kg, 200 mg/kg oral): 8710 ng/mL
concentration at 8 h ([1]; 200 mg/kg, 200 mg/kg oral): 8610 ng/mL
concentration at 1 h ([1]; 250 mg/kg, 250 mg/kg oral, 1 h): 18300 ng/mL
concentration at 3 h ([1]; 250 mg/kg, 250 mg/kg oral): 14800 ng/mL
concentration at 8 h ([1]; 250 mg/kg, 250 mg/kg oral): 11200 ng/mL
